According to paper PMC9000482, “Inhibition of Aldose Reductase by Ginsenoside Derivatives via a Specific Structure Activity Relationship with Kinetics Mechanism and Molecular Docking Study” (Molecules, 2022):
Where two headings read alike, the source gives them in different places. Marks after values point to notes of the source that are not given here.

Key:
[1] = target: T1, rat lens aldose reductase (RLAR) (Rattus norvegicus, UniProt P07943); assay: RLAR inhibitory activity assay (rat lens homogenate, DL-glyceraldehyde substrate); assay type: biochemical
T1 construct: from tissue; host or cells: lens of Sprague-Dawley rats (supernatant of homogenate)
Description: A rat lens homogenate was prepared with minor modifications according to the method reported by Hayman et al.. Briefly, the lenses were removed from the eyes of Sprague-Dawley rats weighing 250–280 g. They were homogenized in sodium phosphate buffer (pH 6.2) that was prepared with dibasic sodium phosphate (Na2HPO4∙H2O, 0.66 g) and monobasic sodium phosphate (NaH2PO4∙H2O, 1.27 g) in 100 mL of double-distilled H2O. The homogenate was clarified by centrifugation at 10,000 rpm at 4 °C for 20 min and the resultant supernatant was frozen until use. A crude AR homogenate with a specific activity of 6.5 U/mg was used in all enzyme inhibition evaluations. The reaction solution consisted of 620 µL of 100 mM sodium phosphate buffer (pH 6.2), 90 µL of AR homogenate, 90 µL of 1.6 mM NADPH, and 9 µL of sample, while the substrate included 90 µL of 50 mM DL-glyceraldehyde. […] AR activity was determined by measuring the decrease in NADPH absorption at 340 nm over a 4 min period on an Ultrospec®2100pro UV/Visible spectrophotometer. SWIFT II Applications software (Amersham Biosciences, NJ, USA) was used for all data analyses. The inhibition percentage (%) was calculated as follows in Equation (1):[1 − (∆Asample/min − ∆Ablank/min)/(∆Acontrol/min − ∆Ablank/min)] × 100(1) in which ∆Asample/min represents the test sample and substrate’s reduction in absorbance over 4 min, and ∆A control/min represents the same reduction in absorbance, but with 100% DMSO (dimethyl sulfoxide) rather than the test sample.

[2] = test system: sorbitol accumulation in rat lens; assay: Lens culture and intracellular sorbitol measurement (ex vivo); assay type: cell-based, Sprague-Dawley rats; details: 25 mM glucose, 6 days, sample 5 μg/mL, mean ± SD (n = 3); for inhibition at 5 µg/mL: 144 h
[3] = target: T2, human recombinant aldose reductase (HRAR) (Homo sapiens, UniProt P15121); assay: Enzyme kinetics of HRAR inhibition (Lineweaver-Burk and Dixon plots); assay type: biochemical; details: for HRAR Mode of Inhibition: Lineweaver-Burk plot
T2 construct: purchased Wako Chemicals (Osaka, Japan)
Description: (§1) Enzyme inhibition with different concentrations ([…]) was assessed by monitoring the effects of different concentrations of the substrate. The following concentrations of test ginsenosides were used in the RLAR kinetics analysis: 0, 2, 10, and 50 µM for protopanaxadiol; 0, 0.5, 2.5, and 10 µM for (20S) ginsenoside Rg3; 0, 0.5, 2.5, and 10 µM for (20R) ginsenoside Rg3; 0, 0.1, 0.5, and 2.5 µM for ginsenoside Rh2; 0, 2, 10, and 50 µM for protopanaxatriol; 0, 0.8, 4, and 20 µM for ginsenoside Rf; 0, 0.8, 4, and 20 µM for (20S) ginsenoside Rg2, and 0, 0.5, 2.5, and 10 µM for ginsenoside Rh1. Using Lineweaver-Burk double reciprocal plots, the inhibition type was determined using various concentrations of DL-glyceraldehyde (5, 10, and 20 mM) for HRAR as a substrate in the presence of different concentrations of the active test ginsenosides. The concentrations of test ginsenosides in the HRAR kinetics analysis were as follows: 0, 0.1, 0.5, and 2.5 µM for protopanaxadiol; 0, 0.5, 2, and 10 µM for (20S) ginsenoside Rg3; 0, 1, 5, and 20 µM for (20R) ginsenoside Rg3; 0, 0.5, 2.5, and 10 µM for ginsenoside Rh2; 0, 0.1, 0.5, and 2.5 µM for compound K; 0, 1, 5, and 10 µM for protopanaxatriol; 0, 0.5, 4, and 20 µM for (20R) ginsenoside Rg2, and 0, 0.2, 2, and 5 µM for ginsenoside Rh1. The Dixon plot is a graphical method [1/enzyme velocity (1/V)] against inhibitor concentration [I] used to determine the type of enzyme inhibition; it was used to identify the dissociation or inhibition constant (Ki) for the enzyme-inhibitor complex. Dixon plots (single reciprocal plots) for RLAR and HRAR inhibition were obtained in the presence of 100, 50, and 10 mM RLAR, and 20, 10, and 5 mM HRAR DL-glyceraldehyde substrate. Thus, the type of enzyme inhibition was determined by interpreting the Lineweaver-Burk plots, and the inhibition constants (Ki) were determined by interpreting the Dixon plots.

[4] = target: T2, human recombinant aldose reductase (HRAR); assay: HRAR inhibition assay (DL-glyceraldehyde substrate); assay type: biochemical
Description: HRAR inhibition was studied according to Nishimura et al.. AR action was studied by measuring the reduction in NADPH absorption at 340 nm over a period of 1 min on a UV/visible spectrophotometer (Ultrospec®2100pro, Biochrom, Holliston, MA, USA). For HRAR inhibition, the HRAR enzyme (0.4 units), was used in all enzyme inhibition evaluations. […] The inhibition percentage (%) was measured as designated in the RLAR assay. The DA sample/min value characterizes the decrease in absorbance for 1 min with the test samples and substrate. The ability of each sample to inhibit HRAR was observed as an IC50 value (µM) and measured from the log-dose inhibition curve.

[5] = target: T1, rat lens aldose reductase (RLAR); assay: Enzyme kinetics of RLAR inhibition (Lineweaver-Burk and Dixon plots); assay type: biochemical; details: for RLAR Mode of Inhibition: Lineweaver-Burk plot
Description: as §1

[6] = rat lens homogenate, substrate DL-glyceraldehyde, mean ± S.E.M. of triplicate experiments, read-out: RLAR IC50
[7] = Dixon plots, single inhibition constant, read-out: HRAR Ki
[8] = substrate DL-glyceraldehyde, mean ± S.E.M. of triplicate experiments, read-out: HRAR IC50
[9] = Dixon plots, read-out: RLAR Kic (binding constant of inhibitor with free enzyme)

Structure (SMILES) | IC50 [1, 6] [µM] | Sorbitol Content (mg)/Lens Wet Weight (g) [2] | Ki [3, 7] [µM] | HRAR Mode of Inhibition [3] | IC50 [4, 8] [µM] | RLAR Mode of Inhibition [5] | inhibition at 5 µg/mL ([2]; Rattus norvegicus) [%] | HRAR Kiu (binding constant of inhibitor with enzyme-substrate complex) ([3]; Dixon plots) [µM] | RLAR Kiu (binding constant of inhibitor with enzyme-substrate complex) ([5]; Dixon plots) [µM] | Ki [5, 9] [µM] | Ki [5] [µM] | IC50 [1] [µM] | Ki [3] [µM] | IC50 [4] [µM] | further results
CC(C)=CCCC(C)(O)C1CCC2(C)C1C(O)CC1C3(C)CCC(O)C(C)(C)C3C(OC3OC(CO)C(O)C(O)C3OC3OC(C)C(O)C(O)C3O)CC12C [(20R) ginsenoside Rg2] | 29.4 ± 2.33 | 0.83 ± 0.01 ^c mg/g | 11.7 | Non-competitive | 13.7 ± 0.99 |  |  |  |  |  |  |  |  |  | Inhibition (%) of sorbitol accumulation in rat lens [2]: 51.74 ± 2.99 ^c %
CC(C)=CCCC(C)(O)C1CCC2(C)C1C(O)CC1C3(C)CCC(OC4OC(CO)C(O)C(O)C4OC4OC(CO)C(O)C(O)C4O)C(C)(C)C3CCC12C [(20R) ginsenoside Rg3] |  | 0.89 ± 0.01 ^c mg/g |  | Mixed type |  | Competitive type | 48.2 ± 3.99 | 17.99 |  |  |  |  |  |  | RLAR Mode of Inhibition ([5]; listed as (20R) Rg3): competitive; Ki ([5]; read-out: RLAR Ki, Dixon plots, single inhibition constant): 3.69 µM; IC50 ([1]; read-out: RLAR IC50, rat lens homogenate, substrate DL-glyceraldehyde, mean ± S.E.M. of triplicate experiments): 4.28 ± 0.31 µM; Ki ([3]; read-out: HRAR Kic (binding constant of inhibitor with free enzyme), Dixon plots): 11.1 µM; IC50 ([4]; read-out: HRAR IC50, substrate DL-glyceraldehyde, mean ± S.E.M. of triplicate experiments): 8.67 ± 0.87 µM
CC(C)=CCCC(C)(O)C1CCC2(C)C1C(O)CC1C3(C)CCC(O)C(C)(C)C3C(OC3OC(CO)C(O)C(O)C3OC3OC(C)C(O)C(O)C3O)CC12C [(20S) ginsenoside Rg2] | 14.4 ± 0.99 | 0.73 ± 0.01 ^c mg/g |  |  | 15.7 ± 1.05 | Mixed type | 57.5 ± 5.11 |  | 17.04 | 10.8 |  |  |  |  | 
CC(C)=CCC[C@](C)(O)C1CC[C@]2(C)[C@@H]1[C@H](O)CC1[C@@]3(C)CC[C@H](O[C@@H]4O[C@H](CO)[C@@H](O)[C@H](O)[C@H]4O[C@@H]4O[C@H](CO)[C@@H](O)[C@H](O)[C@H]4O)C(C)(C)C3CC[C@]12C (stereo partly drawn) [(20S) ginsenoside Rg3] |  | 0.37 ± 0.01 ^b mg/g |  | Competitive type |  | Competitive type | 78.5 ± 4.27 |  |  |  | 1.97 | 1.25 ± 0.28 | 8.06 | 9.92 ± 0.56 | RLAR Mode of Inhibition ([5]; listed as (20S) Rg3): competitive
CC(C)=CCC[C@](C)(O[C@@H]1O[C@H](CO)[C@@H](O)[C@H](O)[C@H]1O)C1CC[C@]2(C)[C@@H]1[C@H](O)CC1[C@@]3(C)CC[C@H](O)C(C)(C)C3CC[C@]12C (stereo partly shown) [Compound K] | 41.5 ± 3.99 | 0.46 ± 0.01 ^b mg/g | 1.59 | Competitive type | 2.23 ± 0.54 |  | 73.2 ± 8.11 |  |  |  |  |  |  |  | HRAR Mode of Inhibition ([3]; listed as compound K): competitive
CC(C)=CCC[C@](C)(O)[C@H]1CC[C@]2(C)[C@@H]1[C@H](O)C[C@@H]1[C@@]3(C)CC[C@H](O)C(C)(C)[C@@H]3[C@@H](O[C@@H]3O[C@H](CO)[C@@H](O)[C@H](O)[C@H]3O[C@@H]3O[C@H](CO)[C@@H](O)[C@H](O)[C@H]3O)C[C@]12C [Ginsenoside Rf] | 11.3 ± 1.49 | 0.28 ± 0.01 ^a mg/g |  |  | 19.5 ± 1.55 | Mixed type | 83.7 ± 4.88 |  | 18.60 | 11.2 |  |  |  |  | 
CC(C)=CCC[C@](C)(O)[C@H]1CC[C@]2(C)[C@@H]1[C@H](O)C[C@@H]1[C@@]3(C)CC[C@H](O)C(C)(C)[C@@H]3[C@@H](O[C@@H]3O[C@H](CO)[C@@H](O)[C@H](O)[C@H]3O)C[C@]12C [Ginsenoside Rh1] |  | 0.10 ± 0.01 ^a mg/g |  | Mixed type |  | Competitive type |  | 8.31 |  |  | 5.39 | 7.28 ± 0.27 | 3.4 | 4.66 ± 0.34 | RLAR Mode of Inhibition ([5]; listed as Rh1): competitive; inhibition at 5 µg/mL [2]: 94.2 ± 4.71%
CC(C)=CCC[C@](C)(O)[C@H]1CC[C@]2(C)[C@@H]1[C@H](O)C[C@@H]1[C@@]3(C)CC[C@H](O[C@@H]4O[C@H](CO)[C@@H](O)[C@H](O)[C@H]4O)C(C)(C)[C@@H]3CC[C@]12C [Ginsenoside Rh2] |  | 0.05 ± 0.01 ^a mg/g |  | Mixed type |  | Competitive type |  | 9.22 |  |  | 0.43 | 0.67 ± 0.01 | 3.63 | 7.44 ± 0.55 | RLAR Mode of Inhibition ([5]; listed as Rh2): competitive; inhibition at 5 µg/mL [2]: 97.1 ± 5.41%
CC(C)=CCC[C@](C)(O)C1CC[C@]2(C)[C@@H]1[C@H](O)CC1[C@@]3(C)CC[C@H](O)C(C)(C)C3CC[C@]12C (stereo partly shown) [Protopanaxadiol] | 21.4 ± 2.45 | 0.06 ± 0.01 ^a mg/g | 0.72 | Competitive type | 0.36 ± 0.1 | Mixed type | 96.5 ± 2.91 |  | 37.39 | 18.8 |  |  |  |  | HRAR Mode of Inhibition ([3]; listed as protopanaxadiol): competitive
